Tests used:
DCD gene [1] = assay: DCD gene expression by qPCR in SK-MEL-147; assay type: cell-based, Human; conditions: SK-MEL-147, 24 h
Method: (§1) […] (2.5 × 10^5) cells in 1 mL of media were seeded in cell culture dishes and, 24 h later, treated with SQ1 (0.3 µM and 0.6 µM for SK-MEL-28 and 0.9 µM and 1.8 µM for SK-MEL-147) or SQ2 (0.05 µM and 0.1 µM for SK-MEL-28 and 0.6 µM and 1.2 µM for SK-MEL-147) for 24 h. Doxorubicin (DOX; 1.4 µM for SK-MEL-28 and 0.8 µM for SK-MEL-147) was used as positive control and 0.5% DMSO as negative control.
(§2) Treated cells (Section 4.6) had their total RNA extracted and purified using TRIzol reagent (Thermo Fisher Scientific, San Jose, CA, USA), in accordance with the manufacturer’s recommendations. For analysis of DCD expression, purified total RNA was quantified using an Eon Microplate Spectrophotometer (BioTek Instruments, Winooski, VT, USA). Quantitative PCR (qPCR) was conducted on a Rotor Gene 6000 real-time cycler (Corbett Life Science, Sydney, NSW, Australia) using GoTaq 1-Step RT-qPCR System (Promega, Madison, WI, EUA). The cycle conditions were as follows: 45 °C for 10 min, 95 °C for 15 min and 40 cycles of 95 °C for 15 s; 60 °C for 60 s, followed by the melt. Relative expression was calculated using the comparative CT method Delta-Delta-Ct (DDCt). The primer sequences and concentrations utilized (DCD and RPLPO) can be consulted in Table S3.

SK-MEL-147 [2] = assay: Clonogenic assay; assay type: cell-based, Human; conditions: for decrease of cell proliferation expressed by colony area: SK-MEL-147, 24 h treatment, 6 days in drug-free medium
Method: as §1
After the cells were submitted to the treatment scheme (Section 4.6), adherent cells were collected, plated at 1 × 10^3 cell/plate on 35-mm plates and maintained in culture for 6 days in treatment-free medium. The medium was replaced every 2 days. Cells were then fixed and stained with a solution of 20% MeOH (Synth, Diadema, São Paulo, Brazil) and 0.5 g crystal violet (Sigma-Aldrich, St. Louis, MO, USA). Images were acquired using G:BOX Chemi XRQ (Syngene, Cambridge, UK) and quantified using the ImageJ program (ColonyArea; US National Institutes of Health, Bethesda, MD, USA).

MRC-5 = assay: MTT cytotoxicity assay; conditions: MRC-5 non-tumor fibroblasts, 72 h treatment, MTT
DCD gene [3] = assay: DCD gene expression by qPCR in SK-MEL-28; assay type: cell-based, Human; conditions: SK-MEL-28, 24 h
Method: as §1, §2

SK-MEL-147 [4] = assay: Western blotting of apoptosis and autophagy markers; assay type: cell-based, Human; conditions: SK-MEL-147, 24 h
Method: as §1
(§3) Treated cells (Section 4.6) had their proteins extracted with the following solution: 10 mM ethylenediaminetetraacetic acid (EDTA), 10% triton, 2 mM phenylmethanesulfonyl fluoride (PMSF), 10 mM Tris base, 10 mM sodium pyrophosphate, 100 mM sodium fluoride, 2.5 mM sodium orthovanadate, and deionized water. The resulting extract was quantified for protein concentration and 30 µg of protein were subjected to SDS-PAGE and to Western blot analysis with the indicated antibodies: cleaved PARP-1 (#5625), PARP1 (#9542), cleaved caspase-3 (#9604), caspase-3 (#9662), SQSTM1/p62 (#5114), LC3B (#2775), and α-tubulin (#2144) from Cell Signaling Technology (Danvers, MA, USA). Images of membranes were made using Pierce ECL Western Blotting Substrate (Thermo Fisher Scientific, San Jose, CA, USA) and G:BOX Chemi XRQ (Syngene, Cambridge, UK). Band intensities were quantified using UN-SCAN-IT gel 6.1 software (Silk Scientific; Orem, UT, USA).

SK-MEL-28 = assay: as above; assay type: cell-based, Human; conditions: SK-MEL-28, 24 h
Method: as §1, §3

Compound | DCD expression relative to control (DCD gene [1]; 1.8 µM) | reduction of the colony levels (SK-MEL-147 [2]; SK-MEL-147, 24 h treatment at half IC50 and IC50, 6 days in drug-free medium) | decrease of cell proliferation expressed by colony area (SK-MEL-147 [2]) [%] | IC50 (MRC-5; Homo sapiens, MRC5, 72 h) [nM] | IC50 (MRC-5) [nM] | DCD expression increase relative to control (DCD gene [3]; 0.3 µM) | DCD expression increase relative to control (DCD gene [3]; 0.6 µM) [times] | apoptotic markers (cleaved PARP-1, cleaved caspase-3) (SK-MEL-147 [4]) | apoptotic markers (cleaved PARP-1, cleaved caspase-3) (SK-MEL-28) | autophagic flux (p62) (SK-MEL-28) | DCD overexpression relative to control (DCD gene [1]; 1.2 µM) | DCD expression up-regulation relative to control (DCD gene [3]; 0.1 µM)
O=c1c2ccccc2c(=O)c2c1sc1c(=O)c3ccccc3c(=O)c12 [SQ1, seriniquinone] | twofold | greater than 50% | 50 | 640 | 600 | twofold | 20 | increase of typical apoptotic markers | increase of typical apoptotic markers | extinction of p62 | – | –
CC(C)(O)C(O)CCc1ccc2c(=O)c3sc4c(=O)c5ccccc5c(=O)c4c3c(=O)c2c1 (stereo not shown) [SQ2] | – | – | 50 | 1570 | – | – | – | increase of typical apoptotic markers | increase of typical apoptotic markers | – | eight | three

Source: article PMC8658889, “Seriniquinones as Therapeutic Leads for Treatment of BRAF and NRAS Mutant Melanomas” (Molecules, 2021)
